Laboratory results from paper PMC10226132, “First-in-Class Selective Inhibitors of the Lysine Acetyltransferase KAT8” (Journal of Medicinal Chemistry, 2023).

Legend:
KAT8 = target: T1, KAT8 (Homo sapiens, UniProt Q9H7Z6); assay: Radioactive KAT8 inhibition assay; assay type: biochemical; conditions: read-out: IC50 KAT8 (5 nM); enzyme 5 nM; 2-fold serial dilution from 200 μM; NI = no inhibition at 200 μM; mean ± SD of three independent experiments
T1 construct: using the previously purified KAT8 (173–458, 5 nM); 6xHis tag with TEV protease cleavage site (N, cleaved yes); made in house; host or cells: E. coli BL21(DE3)
T1 sequence (Q9H7Z6 173-458): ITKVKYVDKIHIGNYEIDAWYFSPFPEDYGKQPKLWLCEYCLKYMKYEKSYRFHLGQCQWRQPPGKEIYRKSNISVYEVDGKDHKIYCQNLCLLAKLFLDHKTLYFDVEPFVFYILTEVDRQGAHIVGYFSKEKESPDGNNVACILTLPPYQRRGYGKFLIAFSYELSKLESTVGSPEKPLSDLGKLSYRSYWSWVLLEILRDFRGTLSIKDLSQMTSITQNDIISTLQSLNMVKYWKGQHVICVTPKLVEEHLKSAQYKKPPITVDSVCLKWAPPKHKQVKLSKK
Description: Purified KAT8 was incubated with the relevant inhibitor (1% DMSO final) in a 2-fold serial dilution starting at 200 μM for 20 min at rt. Then, [^3H]Ac-CoA and biotinylated peptide were added to a total assay volume of 50 μL and the reaction mixture was incubated at rt for 4 h. The reaction was stopped, and the mixture was transferred to a 96-well streptavidin scintillant coated FlashPlate (Perkin Elmer) and incubated for 60 min at rt. The FlashPlate was washed with 0.1% Tween-20, and the liquid scintillation counting (MicroBeta Microplate Counter, Perkin Elmer) was employed to measure the radioactive signal. Experiments were performed in biological triplicates. Signal reduction compared to control was plotted (as inhibition percentage) as a function of compound concentration and fitted by nonlinear regression (GraphPad Prism 8.0) finally yielding the IC50 values.

KAT3B = target: T2, KAT3B (Homo sapiens, UniProt Q09472); assay: HotSpot KAT assay, KAT3B; assay type: biochemical; conditions: read-out: IC50 KAT3B (1 nM); enzyme 1 nM; NI = no inhibition at 200 μM; mean ± SD of three independent experiments
T2 construct: KAT3B (aa 1284–1672, 1 nM); purchased Reaction Biology Corporation
T2 sequence (Q09472 1284-1672): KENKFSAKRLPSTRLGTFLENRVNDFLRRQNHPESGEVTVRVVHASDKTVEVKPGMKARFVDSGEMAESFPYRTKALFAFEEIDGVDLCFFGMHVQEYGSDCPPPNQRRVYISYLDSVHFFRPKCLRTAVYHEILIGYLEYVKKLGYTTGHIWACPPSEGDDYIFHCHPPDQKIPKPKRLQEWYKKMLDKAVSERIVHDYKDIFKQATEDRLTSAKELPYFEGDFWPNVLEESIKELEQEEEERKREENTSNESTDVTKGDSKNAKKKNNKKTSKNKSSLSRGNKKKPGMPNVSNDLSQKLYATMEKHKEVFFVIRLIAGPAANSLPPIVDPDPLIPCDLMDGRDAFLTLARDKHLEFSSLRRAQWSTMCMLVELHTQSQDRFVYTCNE
Description: The effects of the compounds on other KATs were determined using the HotSpot KAT assay (Reaction Biology Corporation, Malvern, PA, USA) according to the supplier’s procedure. […] Histone peptide acetylation was assessed by liquid scintillation counting using a Tri-Carb 2800TR Liquid Scintillation Analyzer (Perkin Elmer). Experiments were performed in biological triplicates. Signal reduction compared to control was plotted (as inhibition percentage) as a function of compound concentration. In cases in which an IC50 was calculated, the values were fitted by nonlinear regression (GraphPad Prism 8.0).

KAT2B = target: T3, KAT2B (Homo sapiens, UniProt Q92831); assay: HotSpot KAT assay, KAT2B; assay type: biochemical; conditions: enzyme 25 nM; NI = no inhibition at 200 μM; mean ± SD of three independent experiments
T3 construct: KAT2B (aa 492–658, 25 nM); purchased Reaction Biology Corporation
Description: The effects of the compounds on other KATs were determined using the HotSpot KAT assay (Reaction Biology Corporation, Malvern, PA, USA) according to the supplier’s procedure. The recombinant catalytic domains of human KAT2A (aa 323–837, 15 nM), KAT2B (aa 492–658, 25 nM), KAT3B (aa 1284–1672, 1 nM), KAT6A (aa 488–778, 10 nM), KAT6B (aa 657–1069, 10 nM), and full length human KAT5 (25 nM) and KAT7 (25 nM) were used. Each enzyme was incubated with the relevant histone peptide [H3 peptide for KAT2A, KAT2B, KAT3B, KAT6A, and KAT7 (2.5–5 μM, depending on the KAT isoform); H2A peptide for KAT5 (1.25 μM); H4 peptide for KAT6B (2.5 μM)] as a substrate and radio-isotope-labeled [^3H]Acetyl-CoA (0.2–1.5 μM, depending on the KAT isoform) as an acetyl donor in the assay buffer [50 mM Tris–HCl (pH 8.0), 50 mM NaCl, 0.1 mM EDTA, 1 mM DTT, 0.1 mM PMSF, 1% DMSO] for 1 h at 30 °C in the presence or absence of various compounds (1% DMSO final) titrated in a 2-fold serial dilution starting at 200 μM. Histone peptide acetylation was assessed by liquid scintillation counting using a Tri-Carb 2800TR Liquid Scintillation Analyzer (Perkin Elmer). Experiments were performed in biological triplicates. Signal reduction compared to control was plotted (as inhibition percentage) as a function of compound concentration. In cases in which an IC50 was calculated, the values were fitted by nonlinear regression (GraphPad Prism 8.0).

HCT116 cells = assay: MTT cell proliferation assay, HCT116; assay type: cell-based, human; conditions: 72 h treatment, MTT
From the text: (§1) Human commercially available AML U937, breast cancer MCF7, lung adenocarcinoma NCI-H460, H1299 and A-549, glioblastoma U251, B lymphocyte AHH1 cell lines were maintained in compete 10% foetal bovine serum (FBS,) RPMI 1640 (Euroclone, Milan, IT) medium. Human commercially available colon cancer HCT116 and HT29 lines and cervix adenocarcinoma HeLa cells were maintained in compete 10% FBS Dulbecco’s Modified Eagle Medium (DMEM) high glucose medium (Euroclone). L-Glutamine, FBS, and penicillin streptomycin mixture added to medium were obtained from Euroclone. All cell lines were cultured at 37 °C in a humidified atmosphere of 5% CO2:95% air and were tested for mycoplasma contamination routinely by RT-PCR.
(§2) For analysis of cell proliferation, cells were plated in sextuplicate on 96-well plates in complete media. After 24 h, cells were exposed to different drugs for 72 h. The inhibitory effect of different drugs was assessed by MTT (Sigma, St. Louis, MO, USA) colorimetric assays as previously reported.[67] Aqueous DMSO (0.5% v/v) was used as a control (untreated). The results are reported as “viability of drug-treated cells/viability of untreated cells” × 100 and represent the average ±SD of three independent experiments. IC50 values were using fitted by nonlinear regression using GraphPad Prism 8.0.

H1299 cells = assay: MTT cell proliferation assay, H1299; assay type: cell-based, human; conditions: 72 h treatment, MTT
From the text: as §1, §2

A549 cells = assay: MTT cell proliferation assay, A549; assay type: cell-based, human; conditions: 72 h treatment, MTT
From the text: as §1, §2

U937 cells [1] = assay: MTT cell proliferation assay, U937; assay type: cell-based, human; conditions: 72 h treatment, MTT
From the text: as §1, §2

AHH-1 cells = assay: Proliferation of noncancer B lymphocyte AHH-1 cells; assay type: cell-based, human; conditions: 72 h
From the text: as §1, §2

[2] = tested on: human intestinal epithelial cells (InEpC); assay: Proliferation of human intestinal epithelial cells (InEpC); assay type: cell-based; conditions: 25, 50, 100, 200 μM, 72 h
Description: as §2

[3] = tested on: normal human lung fibroblasts (NHLF); assay: Proliferation of normal human lung fibroblasts (NHLF); assay type: cell-based; conditions: 25, 50, 100, 200 μM, 72 h
Description: as §2

U937 cells [4] = tested on: U937 cells; set-up: method as in PMID 28202522; conditions: cited from earlier work

T3 sequence (Q92831 492-658): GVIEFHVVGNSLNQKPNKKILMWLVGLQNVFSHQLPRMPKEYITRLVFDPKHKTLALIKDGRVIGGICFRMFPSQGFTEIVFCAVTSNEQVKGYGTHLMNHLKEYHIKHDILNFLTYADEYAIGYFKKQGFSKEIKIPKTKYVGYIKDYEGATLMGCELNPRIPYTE

SMILES	IC50 (KAT8)	IC50 (KAT3B)	IC50 (KAT2B)	IC50 HCT116, 72 h (HCT116 cells)	IC50 H1299, 72 h (H1299 cells)	IC50 A549, 72 h (A549 cells)	IC50 U937, 72 h (U937 cells [1])	effect on proliferation of AHH-1 cells (AHH-1 cells; 25, 50, 100, 200 μM)	IC50 (AHH-1 cells; Homo sapiens, AHH-1, NI = no inhibition at 200 µM)	effect on proliferation of InEpC [2]	effect on proliferation of NHLF [3]	antiproliferative activity in U937 and other AML cell lines (U937 cells [4])
CC1=NN(c2ccc(C(=O)NCc3ccccc3)cc2)C(=O)/C1=C\c1ccc[nH]1 [Compound 39, (Z)-4-(4-((1H-Pyrrol-2-yl)methylene)-3-methyl-5-oxo-4,5-dihydro-1H-pyrazol-1-yl)-N-benzylbenzamide]	> 200 µM	> 200 µM	> 200 µM	No inhibition at 100 µM	No inhibition at 100 µM	No inhibition at 100 µM	No inhibition at 100 µM	did not significantly affect the proliferation	> 200 µM	did not significantly affect the proliferation	did not significantly affect the proliferation	
CCCCCCCc1ccc(CCc2cccc(O)c2C(=O)O)cc1 [III (MG149), reference compound]	20.3 ± 1.3 µM	22.3 ± 1.1 µM	> 200 µM									exerted antiproliferative activity
